Experimental findings from paper PMC12400753 (Respiratory Research, 2025) are described below.

Data set [1] deals with primary human alveolar macrophages. Description: LPS-induced IL-1β release. It is filed as cell-based. Here is the method: Human macrophages were cultured in Human Alveolar Macrophage Media per manufacturer’s instructions. […] Cells were then co-stimulated with 500 ng/mL LPS for 4 h. Plates were spun down and supernatant collected for analysis using a human IL-1β ELISA kit per manufacturer’s directions.

Data set [2] concerns bleomycin-induced lung fibrosis. Description: Intratracheal bleomycin mouse model (14 day, prophylactic dosing). It is filed as in vivo. To be noted: for body weight improvement over bleomycin alone: day 14. The procedure: Intratracheal instillation of bleomycin results in acute alveolar cell damage, inflammation, and subsequent tissue remodeling and is a widely used preclinical IPF model.
Female C57BL6/N mice 8–10 weeks old were obtained from Charles River. […] Bleomycin was administered by oropharyngeal instillation 23 h after first dose (Day 0). On the day of instillation, bleomycin was prepared by diluting a 15 unit (U) vial to 1.5 U/mL with sterile saline. Mice were lightly anesthetized with isoflurane (5% in 100% O2) and administered sterile saline or bleomycin (3.0 U/kg) via oropharyngeal instillation at a dose volume of 2 mL/kg (2 µL/g). Mice were returned to their cages and monitored daily for the duration of each experiment. […] Fourteen days after bleomycin instillation, mice were euthanized via isoflurane anaesthesia, cardiac blood collected into K3EDTA tubes and stored on wet ice, and BALF and lungs were isolated for subsequent analysis of biochemical and histopathological indices of lung injury, inflammation, and fibrosis. To do this, mice were intubated with a 20-gauge luer stub adapter connected to a 3-way stopcock fitted with two 3 mL syringes (the delivery syringe was pre-filled with 1.5 mL phosphate buffered saline (PBS), and the receiving syringe was empty). Lungs were lavaged with PBS (2 × 0.75 mL) to obtain BALF. BALF was placed on wet ice until centrifugation to separate from cells. Lungs were dissected and placed into 1 mL 6 M HCl for collagen analysis using the Quickzyme total collagen assay kit according to manufacturer’s instructions. At the end of the experimental collection, BALF was centrifuged (300 x g, 10 min, 4 °C) to isolate BALF from the cell pellet. The cell pellet was discarded and the BALF aliquoted and stored at −80 °C for biomarker analysis. For the analysis, n = 8 biological replicates were analyzed in singlicate for various biomarkers (total protein, TGFβ1, TIMP-1, procollagen) according to manufacturer’s recommended instructions.

Data set [3] relates to mouse alveolar macrophages. Briefly: IL-1β release of alveolar macrophages from orally dosed mice, ex vivo LPS. The data set is classed as in vivo. To be noted: 3 mg/kg oral, 24 h before isolation; with and without ex vivo LPS. The procedure:
1.5 mL DPBS was injected into lungs and BAL fluid aspirated. Cells were plated in at 40,000 cells/well and stimulated first with 500 ng/mL LPS for 4 h then and 1 µM LPA for an additional hour at 37 °C. Plates were spun down and supernatant analyzed for IL-1β by ELISA.

The nature of data set [4]: Plasma protein binding (fraction unbound). The data set is classed as in vitro ADME. Particulars: rat plasma.
The subject of data set [5] is fresh human PCLS from donors with pulmonary fibrosis. Briefly: Secreted biomarkers in fresh PCLS from pulmonary fibrosis donors. The data set is classed as cell-based. To be noted: PIPE-791 0.03, 0.3, 3 µM; 48 h. The text has this:
Translationally, biomarker-based strategies for assessing aberrant extracellular matrix deposition and remodeling in the context of disease pathogenesis and compound efficacy have become increasingly relevant. For the PCLS gene expression studies, slices were preserved through slow cryogenic freezing of tissue. While this affords experimental flexibility, some physiological relevance is lost over the course of cryostorage and recovery (e.g., immune cell loss). To circumvent this, fresh PCLS from two donors with pulmonary fibrosis were generated and immediately placed into culture. For this experiment, well-established, secreted fibrotic markers that encompass fibrogenesis and tissue remodeling were measured: C3M (a marker of collagen III degradation and an indicant of ECM remodeling and tissue turnover), Pro-C3 (a neo-epitope fragment of collagen III and a marker of active fibrogenesis and fibrosis progression), and Pro-C6 (a neoepitope fragment of COLVIA3 and a marker of remodeling and wound healing). […] Media was then removed and analyzed for biomarker concentration.
PCLS cultures for secreted biomarker analysis were performed at Fraunhofer ITEM (Hanover, Germany) using tissue from pathologist qualified, pulmonary fibrosis patients. Tissue from individual donors and 2 lung regions were collected in accordance with policies approved by the Hanover Medical School ethics committee. Only fibrotic tissue was used for experiments. Region 1 consisted of subpleural tissue and Region 2 of central tissue. For each, lung lobes were filled with low-melting agarose then sectioned at 300 μm on a Krumdiek tissue slicer as described in Hesse et al., 2022. Slices were incubated in DMEM containing penicillin and streptomycin, two slices per region were used. […] Supernatant was collected and shipped to Nordic Bioscience (Herlev, Denmark) for C3M, Pro-C6 and Pro-C3 analysis. Donor information can be found in Additional File 1.

With `COc1ccc(NC(=O)N(c2ccccc2C(C)C)C2CCC(C(=O)O)CC2)c(OC(F)F)n1` (stereo not drawn) [PIPE-791], the “LPS-induced IL-1β in culture media” value in data set [1] (500 ng/mL LPS 4 h, LPS alone 4.3-fold increase) is listed as “inhibited to baseline levels”. For the same compound, the “IL-1β in culture media, compound alone” value in data set [1] (no LPS) is given as “No increase was observed”. Besides, the “body weight improvement over bleomycin alone” value in data set [2] (0.03 mg/kg oral once a day) is 28%. The “lung hydroxyproline (collagen)” value in data set [2] (0.03 mg/kg oral once a day, p = 0.077) was “trending decrease in collagen, the values did not reach statistical significance”. Also, in data set [2] (0.3 mg/kg oral once a day), the “reduction in lung hydroxyproline” value worked out at 41% and the “body weight improvement over bleomycin alone” value was determined as 41%. Also, in data set [2] (3 mg/kg oral once a day), the “reduction in BAL fluid TGFβ vs bleomycin/vehicle” value is 51%, the “reduction in BAL fluid TIMP1 vs bleomycin/vehicle” value is 57%, the “reduction in BAL fluid procollagen vs bleomycin/vehicle” value is given as 65% and the “reduction in lung hydroxyproline” value was 39%. In data set [2] (3 mg/kg oral once a day), the “body weight improvement over bleomycin alone” value was found to be 38%. Further, the survival entry in data set [2] (0.03, 0.3, 3 mg/kg groups, 3 mice died in bleomycin/vehicle group) is given as “no mice lost”. Further, the “maximal inhibition of lung collagen” value in data set [2] (prophylactic, at 0.3 mg/kg (discussion)) was found to be 40%. Also, the “IL-1β levels of isolated alveolar macrophages” value in data set [3] was “comparable to baseline”. Also, the plasma fraction unbound in data set [4] is reported as 0.057. Further, in data set [5], the “secreted C3M” value is “reduction in C3M secretion with PIPE-791 at all concentrations tested, with significance observed at 0.03 and 3 µM”; the “secreted Pro-C3” value was “did not observe a significant decrease”; the “secreted Pro-C6” value is “significant reduction in secreted Pro-C6 at all concentrations”.
